Columns and labels:
Adenosine receptor A1 = target: T1, Adenosine receptor A1 (Homo sapiens, UniProt P30542)
T1 sequence (P30542 whole entry): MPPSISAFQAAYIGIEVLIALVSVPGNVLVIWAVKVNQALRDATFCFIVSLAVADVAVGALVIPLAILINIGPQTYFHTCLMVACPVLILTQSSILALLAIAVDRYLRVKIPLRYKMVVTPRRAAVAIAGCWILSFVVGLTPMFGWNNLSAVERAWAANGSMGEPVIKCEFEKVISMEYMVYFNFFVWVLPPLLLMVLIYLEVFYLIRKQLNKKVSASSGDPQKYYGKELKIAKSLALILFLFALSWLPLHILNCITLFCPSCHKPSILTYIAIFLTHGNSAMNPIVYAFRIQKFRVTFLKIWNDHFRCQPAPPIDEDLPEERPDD

Vasopressin V2 receptor = Vasopressin V2 receptor (Homo sapiens, UniProt P30518)
[1] = target: Gamma-aminobutyric acid receptor subunit alpha-1 (Rattus norvegicus, UniProt P62813)
Histamine H2 receptor = Histamine H2 receptor (Homo sapiens, UniProt P25021); type: functional, cell-based
[2] = target: T2, Neuropeptide Y receptor type 1 (Homo sapiens, UniProt P25929); details: read-out: AC50
T2 sequence (P25929 whole entry): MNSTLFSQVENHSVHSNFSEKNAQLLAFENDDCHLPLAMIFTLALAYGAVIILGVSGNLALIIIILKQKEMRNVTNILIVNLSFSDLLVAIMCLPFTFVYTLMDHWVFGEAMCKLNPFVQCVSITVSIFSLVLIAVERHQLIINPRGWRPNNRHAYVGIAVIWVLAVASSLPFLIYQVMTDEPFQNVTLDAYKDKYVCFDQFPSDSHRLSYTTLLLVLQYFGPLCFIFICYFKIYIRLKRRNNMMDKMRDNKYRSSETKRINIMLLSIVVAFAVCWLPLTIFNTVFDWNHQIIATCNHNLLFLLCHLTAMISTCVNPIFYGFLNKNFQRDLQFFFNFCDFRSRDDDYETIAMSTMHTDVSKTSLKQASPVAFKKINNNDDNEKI

[3] = target: Delta-type opioid receptor (Homo sapiens, UniProt P41143)
[4] = target: 3',5'-cyclic-AMP phosphodiesterase 4D (Homo sapiens, UniProt Q08499); type: functional
Progesterone receptor = target: T3, Progesterone receptor (Homo sapiens, UniProt P06401); type: functional
T3 sequence (P06401 whole entry): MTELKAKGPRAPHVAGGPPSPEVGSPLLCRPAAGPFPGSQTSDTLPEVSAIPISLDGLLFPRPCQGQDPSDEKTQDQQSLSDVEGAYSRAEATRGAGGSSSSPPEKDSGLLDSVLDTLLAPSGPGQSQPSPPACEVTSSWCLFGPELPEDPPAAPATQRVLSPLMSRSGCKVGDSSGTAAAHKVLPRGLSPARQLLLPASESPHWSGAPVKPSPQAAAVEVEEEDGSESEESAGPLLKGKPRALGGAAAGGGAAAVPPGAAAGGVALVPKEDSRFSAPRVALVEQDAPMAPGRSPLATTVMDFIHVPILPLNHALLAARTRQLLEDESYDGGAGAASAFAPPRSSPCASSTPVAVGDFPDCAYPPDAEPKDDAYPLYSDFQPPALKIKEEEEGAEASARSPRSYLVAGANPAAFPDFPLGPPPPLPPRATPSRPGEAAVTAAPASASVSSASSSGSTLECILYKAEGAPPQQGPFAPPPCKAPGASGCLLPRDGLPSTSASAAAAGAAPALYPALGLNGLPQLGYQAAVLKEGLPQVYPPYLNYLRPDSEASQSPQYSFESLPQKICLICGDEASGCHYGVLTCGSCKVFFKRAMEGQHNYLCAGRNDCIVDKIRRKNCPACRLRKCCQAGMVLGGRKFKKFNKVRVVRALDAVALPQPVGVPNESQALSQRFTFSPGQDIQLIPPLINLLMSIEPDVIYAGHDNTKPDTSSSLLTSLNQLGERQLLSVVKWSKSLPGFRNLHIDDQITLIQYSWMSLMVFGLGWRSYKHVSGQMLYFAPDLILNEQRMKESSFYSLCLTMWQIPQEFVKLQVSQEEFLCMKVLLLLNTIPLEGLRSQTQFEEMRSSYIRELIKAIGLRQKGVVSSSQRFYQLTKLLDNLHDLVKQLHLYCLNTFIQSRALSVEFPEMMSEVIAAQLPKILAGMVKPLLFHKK

[5] = target: T4, Alpha-1A adrenergic receptor (Homo sapiens, UniProt P35348); type: functional, cell-based
T4 sequence (P35348 whole entry): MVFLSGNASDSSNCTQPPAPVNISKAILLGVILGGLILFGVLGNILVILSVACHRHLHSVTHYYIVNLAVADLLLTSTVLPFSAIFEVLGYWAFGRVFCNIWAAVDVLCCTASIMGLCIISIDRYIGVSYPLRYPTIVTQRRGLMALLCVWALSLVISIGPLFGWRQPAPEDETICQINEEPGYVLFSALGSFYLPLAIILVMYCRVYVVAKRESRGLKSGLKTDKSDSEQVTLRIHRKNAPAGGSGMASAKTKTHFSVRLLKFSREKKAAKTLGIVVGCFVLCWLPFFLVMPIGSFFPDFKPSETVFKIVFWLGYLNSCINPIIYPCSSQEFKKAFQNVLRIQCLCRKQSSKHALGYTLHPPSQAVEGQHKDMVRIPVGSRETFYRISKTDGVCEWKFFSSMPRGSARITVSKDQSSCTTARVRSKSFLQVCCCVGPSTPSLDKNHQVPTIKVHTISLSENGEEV

[6] = target: T5, Muscarinic acetylcholine receptor M1 (Homo sapiens, UniProt P11229); type: functional
T5 sequence (P11229 whole entry): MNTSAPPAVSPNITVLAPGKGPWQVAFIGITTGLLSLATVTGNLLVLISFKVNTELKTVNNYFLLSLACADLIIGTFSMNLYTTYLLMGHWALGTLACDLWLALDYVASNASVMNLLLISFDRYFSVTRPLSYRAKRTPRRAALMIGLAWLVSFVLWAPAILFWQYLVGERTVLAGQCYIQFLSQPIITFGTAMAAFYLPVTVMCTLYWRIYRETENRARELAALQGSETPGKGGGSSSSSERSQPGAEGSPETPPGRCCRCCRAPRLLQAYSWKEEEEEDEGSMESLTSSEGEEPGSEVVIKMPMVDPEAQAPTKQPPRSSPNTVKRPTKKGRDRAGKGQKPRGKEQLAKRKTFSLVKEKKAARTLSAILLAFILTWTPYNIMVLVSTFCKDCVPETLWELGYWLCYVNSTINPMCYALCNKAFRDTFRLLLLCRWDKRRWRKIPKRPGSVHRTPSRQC

[7] = target: Muscarinic acetylcholine receptor M3 (Homo sapiens, UniProt P20309)
Further: assay procedure not described here.

Chain of Muscarinic acetylcholine receptor M3 (P20309 whole entry): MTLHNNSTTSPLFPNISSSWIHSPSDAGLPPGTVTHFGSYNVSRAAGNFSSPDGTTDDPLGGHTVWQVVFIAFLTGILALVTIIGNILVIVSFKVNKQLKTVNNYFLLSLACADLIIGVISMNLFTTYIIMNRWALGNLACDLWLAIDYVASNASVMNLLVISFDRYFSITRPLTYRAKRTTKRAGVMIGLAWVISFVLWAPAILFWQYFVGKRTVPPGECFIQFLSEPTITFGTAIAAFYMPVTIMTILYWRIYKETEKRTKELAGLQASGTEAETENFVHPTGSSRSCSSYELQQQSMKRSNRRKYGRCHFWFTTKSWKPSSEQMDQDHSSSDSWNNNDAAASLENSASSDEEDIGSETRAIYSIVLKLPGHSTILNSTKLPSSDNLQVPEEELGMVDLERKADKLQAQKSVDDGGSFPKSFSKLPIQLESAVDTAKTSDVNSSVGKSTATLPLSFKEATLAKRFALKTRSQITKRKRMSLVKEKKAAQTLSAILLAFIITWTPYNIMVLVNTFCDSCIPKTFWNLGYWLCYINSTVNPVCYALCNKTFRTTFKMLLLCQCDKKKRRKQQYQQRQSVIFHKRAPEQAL
Chain of 3',5'-cyclic-AMP phosphodiesterase 4D (Q08499 whole entry): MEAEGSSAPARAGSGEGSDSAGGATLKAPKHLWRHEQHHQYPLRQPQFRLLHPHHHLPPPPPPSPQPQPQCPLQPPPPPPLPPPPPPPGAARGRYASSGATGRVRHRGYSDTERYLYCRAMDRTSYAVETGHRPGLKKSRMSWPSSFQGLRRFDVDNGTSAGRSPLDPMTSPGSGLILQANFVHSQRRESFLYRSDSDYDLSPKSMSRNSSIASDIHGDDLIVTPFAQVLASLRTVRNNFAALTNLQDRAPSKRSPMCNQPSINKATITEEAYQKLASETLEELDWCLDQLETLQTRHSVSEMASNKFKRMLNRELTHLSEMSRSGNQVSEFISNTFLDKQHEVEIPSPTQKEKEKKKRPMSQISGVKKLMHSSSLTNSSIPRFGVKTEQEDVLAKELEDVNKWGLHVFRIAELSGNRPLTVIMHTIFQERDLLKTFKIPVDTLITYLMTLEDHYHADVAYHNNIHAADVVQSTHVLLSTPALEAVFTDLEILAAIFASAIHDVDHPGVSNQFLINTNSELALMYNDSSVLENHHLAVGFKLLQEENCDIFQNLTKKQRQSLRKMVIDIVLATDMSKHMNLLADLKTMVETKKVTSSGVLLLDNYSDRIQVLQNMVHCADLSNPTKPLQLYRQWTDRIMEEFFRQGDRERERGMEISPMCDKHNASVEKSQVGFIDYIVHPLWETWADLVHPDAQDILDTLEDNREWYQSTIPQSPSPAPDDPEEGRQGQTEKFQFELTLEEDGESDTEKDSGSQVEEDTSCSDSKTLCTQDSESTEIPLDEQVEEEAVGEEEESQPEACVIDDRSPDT
Chain of Histamine H2 receptor (P25021 whole entry): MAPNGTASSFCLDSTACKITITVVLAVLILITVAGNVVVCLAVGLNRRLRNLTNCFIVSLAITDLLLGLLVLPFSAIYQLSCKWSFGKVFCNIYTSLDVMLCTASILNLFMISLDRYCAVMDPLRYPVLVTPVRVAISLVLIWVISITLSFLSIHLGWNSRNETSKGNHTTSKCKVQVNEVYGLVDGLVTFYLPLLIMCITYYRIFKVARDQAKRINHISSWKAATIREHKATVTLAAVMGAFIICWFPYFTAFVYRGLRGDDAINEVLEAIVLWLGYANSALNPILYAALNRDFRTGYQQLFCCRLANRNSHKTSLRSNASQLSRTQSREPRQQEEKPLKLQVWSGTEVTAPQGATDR
Chain of Gamma-aminobutyric acid receptor subunit alpha-1 (P62813 whole entry): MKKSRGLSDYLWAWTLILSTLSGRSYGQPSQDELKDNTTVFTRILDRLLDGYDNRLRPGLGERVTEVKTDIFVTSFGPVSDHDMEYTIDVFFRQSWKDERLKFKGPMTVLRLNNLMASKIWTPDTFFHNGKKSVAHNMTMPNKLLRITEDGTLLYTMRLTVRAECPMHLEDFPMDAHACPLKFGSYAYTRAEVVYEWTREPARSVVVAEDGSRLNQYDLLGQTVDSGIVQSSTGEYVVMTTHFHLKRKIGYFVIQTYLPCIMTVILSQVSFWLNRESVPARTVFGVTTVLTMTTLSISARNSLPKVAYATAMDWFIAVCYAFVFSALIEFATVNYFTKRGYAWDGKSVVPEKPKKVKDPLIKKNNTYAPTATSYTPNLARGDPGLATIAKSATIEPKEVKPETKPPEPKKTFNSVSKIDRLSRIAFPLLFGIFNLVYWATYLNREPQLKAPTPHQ
Chain of Vasopressin V2 receptor (P30518 whole entry): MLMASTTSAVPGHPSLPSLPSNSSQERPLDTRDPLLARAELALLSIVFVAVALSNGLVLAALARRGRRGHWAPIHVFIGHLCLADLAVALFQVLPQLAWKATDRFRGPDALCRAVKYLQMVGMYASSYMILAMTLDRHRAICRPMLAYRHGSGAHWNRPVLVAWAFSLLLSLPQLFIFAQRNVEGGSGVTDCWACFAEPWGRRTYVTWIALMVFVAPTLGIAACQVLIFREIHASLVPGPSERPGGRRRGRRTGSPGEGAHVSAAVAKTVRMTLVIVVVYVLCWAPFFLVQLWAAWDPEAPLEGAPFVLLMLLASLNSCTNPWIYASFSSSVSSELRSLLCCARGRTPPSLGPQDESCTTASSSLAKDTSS
Chain of Delta-type opioid receptor (P41143 whole entry): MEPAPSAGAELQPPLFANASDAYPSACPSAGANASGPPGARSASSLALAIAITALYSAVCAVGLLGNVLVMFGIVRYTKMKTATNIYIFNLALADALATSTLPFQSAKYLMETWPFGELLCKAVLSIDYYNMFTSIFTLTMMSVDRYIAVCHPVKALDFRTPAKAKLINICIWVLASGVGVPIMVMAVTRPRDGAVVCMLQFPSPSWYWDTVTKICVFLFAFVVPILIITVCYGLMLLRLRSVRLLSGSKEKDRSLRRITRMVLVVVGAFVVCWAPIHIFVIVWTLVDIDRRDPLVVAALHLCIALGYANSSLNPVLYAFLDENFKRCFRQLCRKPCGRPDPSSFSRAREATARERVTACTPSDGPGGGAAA

| SMILES | AC50 (Adenosine receptor A1) [µM] | AC50 (Vasopressin V2 receptor) [µM] | AC50 [1] [µM] | AC50 (Histamine H2 receptor) [µM] | AC50 [2] [µM] | AC50 [3] [µM] | AC50 [4] [µM] | AC50 (Progesterone receptor) [µM] | AC50 [5] [µM] | AC50 [6] [µM] | AC50 [7] [µM] |
| --- | --- | --- | --- | --- | --- | --- | --- | --- | --- | --- | --- |
| CCN(CC)CCNC(=O)c1cc(S(C)(=O)=O)ccc1OC [TIAPRIDE] | > 30 | > 30 | > 30 | > 30 | > 30 | > 30 | > 30 | > 30 | > 30 |  |  |
| OCc1cc(C(O)CNCCCCCCOCCCCc2ccccc2)ccc1O (centres undefined) [SALMETEROL] | > 30 | > 30 | > 10 | > 10 | > 30 | > 30 | > 30 | > 30 |  | > 10 | > 30 |
| CCN(CC)CCN1C(=O)CN=C(c2ccccc2F)c2cc(Cl)ccc21 [FLURAZEPAM] | > 30 | > 30 | > 10 | > 30 | > 30 | > 30 | > 30 |  | > 30 | > 10 | > 30 |
| CN(C(=O)c1c(O)c2ccccc2n(C)c1=O)c1ccccc1 [ROQUINIMEX] |  |  |  |  |  |  | > 30 | > 30 | > 30 | > 30 |  |
| Cn1c(=O)cc(N2CCC[C@@H](N)C2)n(Cc2ccccc2C#N)c1=O [ALOGLIPTIN] | > 30 | > 30 |  |  | > 30 | > 10 | > 30 |  |  | > 10 |  |
| O=C1CN=C(c2ccccc2)c2cc([N+](=O)[O-])ccc2N1 [NITRAZEPAM] | > 10 | > 10 | > 10 | > 30 | > 10 | > 30 | 30 | > 10 |  |  |  |
| CC(=O)[C@]1(O)Cc2c(O)c3c(c(O)c2[C@@H](O[C@H]2C[C@H](N)[C@H](O)[C@H](C)O2)C1)C(=O)c1ccccc1C3=O [IDARUBICIN] | > 10 | > 10 | > 30 | > 30 | > 10 | 19 | > 30 | 5.8 |  |  |  |
| COc1cc2ncnc(Nc3ccc(F)c(Cl)c3)c2cc1NC(=O)/C=C/CN1CCCCC1 [DACOMITINIB ANHYDROUS] |  |  |  |  |  |  | 25 | > 30 | > 30 | 11 |  |
| Nc1cc(-c2ccncc2)c[nH]c1=O [INAMRINONE] | > 30 | > 30 | > 10 | > 10 | > 30 | > 30 |  |  | > 30 |  |  |
| O=C(O)CCNC(=O)c1ccccc1 [BETAMIPRON] | > 30 | > 30 | > 30 | > 30 | > 30 | > 30 | > 30 | > 30 | > 30 |  |  |
| COc1cc2c(cc1OC)C(CCc1ccc(Cl)cc1)N(C)CC2 (centres undefined) [METHOPHOLINE] | > 30 | > 30 | > 10 | > 10 | > 30 | > 30 | > 30 | > 30 |  | > 10 | > 30 |
| C/C(=C\C(=O)OCCCCCCCCC(=O)O)C[C@@H]1OC[C@H](C[C@@H]2O[C@H]2[C@@H](C)[C@H](C)O)[C@@H](O)[C@H]1O [MUPIROCIN] | > 10 | > 10 | > 10 | > 10 | > 10 | > 30 | > 30 | > 10 |  | > 10 | > 30 |
| C#CCOc1ccc(N)cc1C(=O)NCCCC [PARSALMIDE] | > 30 | > 30 | > 30 | > 30 | > 30 | > 30 | > 30 | > 30 |  | > 30 | > 30 |
| Cn1cnc2c(F)c(Nc3ccc(Br)cc3Cl)c(C(=O)NOCCO)cc21 [SELUMETINIB] |  |  |  |  |  |  | > 30 |  |  | > 10 |  |
| NC(=O)CN1CCCC1=O | > 30 | > 30 | > 30 | > 30 | > 30 | > 30 | > 30 | > 30 | > 30 |  |  |
| CCN1CCCC1CNC(=O)c1cc(S(=O)(=O)CC)c(N)cc1OC (centres undefined) [AMISULPRIDE] | > 30 | > 30 | > 30 | > 30 | > 30 | > 30 | > 30 | > 30 |  | > 30 | > 30 |
| O=C1CN=C(c2ccccn2)c2cc(Br)ccc2N1 [BROMAZEPAM] | > 10 | > 10 | > 10 | > 10 | > 10 | > 30 | > 30 | > 10 |  | > 10 | > 30 |
| NC1CCN(c2nc3c(cc2F)c(=O)c(C(=O)O)cn3-c2ccc(F)cc2F)C1 (centres undefined) [TOSUFLOXACIN] | > 30 | > 30 |  | > 30 | > 30 | > 30 | > 30 | > 30 | > 30 |  |  |
| CC(=O)[C@@]1(O)CC[C@H]2[C@@H]3C=C(Cl)C4=CC(=O)[C@@H]5C[C@@H]5[C@]4(C)[C@H]3CC[C@@]21C [CYPROTERONE] | > 10 | > 10 | > 10 | > 10 | > 10 | > 30 | > 10 | 0.003 |  | > 10 | > 30 |
